According to PMC10578352, “Identification of a Protein Arginine Methyltransferase 7 (PRMT7)/Protein Arginine Methyltransferase 9 (PRMT9) Inhibitor” (Journal of Medicinal Chemistry, 2023):

Tests used:
Type in all cases: biochemical
[1] = target: T1, PRMT3 (Homo sapiens, UniProt O60678); test: HotSpot radioisotope-based filter assay, PRMT3
T1 construct: PRMT3 (residues 2–531, C-terminus); with an N-terminal His-tag; His (N); purchased Reaction Biology Corporation
Method: (§1) Then, ^3H-SAM (final concentration of 1 μM) was delivered into the reaction mixture to initiate the reaction. After incubation for 60 min at 30 °C, the reaction mixture was delivered to filter-paper for detection (as assessed by scintillation). Data were analyzed using Excel and GraphPad Prism 6.0 software (GraphPad Software Inc., San Diego, CA) for IC50 curve fits using sigmoidal dose vs response - variable slope (four parameters) equations.

[2] = target: T2, PRMT4 (Homo sapiens, UniProt Q86X55); test: HotSpot radioisotope-based filter assay, PRMT4
T2 construct: PRMT4 (residues 2–608, C-terminus); with an N-terminal GST-tag; GST (N); purchased Reaction Biology Corporation
T2 sequence (Q86X55 2-608): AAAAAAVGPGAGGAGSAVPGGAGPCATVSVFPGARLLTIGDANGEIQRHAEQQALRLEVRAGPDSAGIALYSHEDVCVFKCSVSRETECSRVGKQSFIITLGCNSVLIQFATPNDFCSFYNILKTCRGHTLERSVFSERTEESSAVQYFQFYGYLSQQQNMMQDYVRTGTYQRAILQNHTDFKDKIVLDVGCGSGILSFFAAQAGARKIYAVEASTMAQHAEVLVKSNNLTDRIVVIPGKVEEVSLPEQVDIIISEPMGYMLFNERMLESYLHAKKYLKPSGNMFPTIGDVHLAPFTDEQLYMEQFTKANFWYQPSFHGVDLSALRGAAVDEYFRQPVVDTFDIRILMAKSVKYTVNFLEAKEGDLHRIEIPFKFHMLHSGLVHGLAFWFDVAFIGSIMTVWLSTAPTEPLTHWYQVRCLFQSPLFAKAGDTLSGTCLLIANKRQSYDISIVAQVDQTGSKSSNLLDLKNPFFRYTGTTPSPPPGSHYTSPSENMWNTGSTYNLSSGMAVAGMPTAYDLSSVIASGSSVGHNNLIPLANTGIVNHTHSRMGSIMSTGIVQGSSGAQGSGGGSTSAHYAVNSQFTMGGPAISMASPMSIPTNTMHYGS
Method: as §1

[3] = target: T3, PRMT5/MEP50 complex (Homo sapiens, UniProt O14744); test: HotSpot radioisotope-based filter assay, PRMT5
T3 construct: residues PRMT5 2–637, C-terminus, and MEP50 2–342, C-terminus; FLAG (N); purchased Reaction Biology Corporation
T3 sequence (O14744 2-637): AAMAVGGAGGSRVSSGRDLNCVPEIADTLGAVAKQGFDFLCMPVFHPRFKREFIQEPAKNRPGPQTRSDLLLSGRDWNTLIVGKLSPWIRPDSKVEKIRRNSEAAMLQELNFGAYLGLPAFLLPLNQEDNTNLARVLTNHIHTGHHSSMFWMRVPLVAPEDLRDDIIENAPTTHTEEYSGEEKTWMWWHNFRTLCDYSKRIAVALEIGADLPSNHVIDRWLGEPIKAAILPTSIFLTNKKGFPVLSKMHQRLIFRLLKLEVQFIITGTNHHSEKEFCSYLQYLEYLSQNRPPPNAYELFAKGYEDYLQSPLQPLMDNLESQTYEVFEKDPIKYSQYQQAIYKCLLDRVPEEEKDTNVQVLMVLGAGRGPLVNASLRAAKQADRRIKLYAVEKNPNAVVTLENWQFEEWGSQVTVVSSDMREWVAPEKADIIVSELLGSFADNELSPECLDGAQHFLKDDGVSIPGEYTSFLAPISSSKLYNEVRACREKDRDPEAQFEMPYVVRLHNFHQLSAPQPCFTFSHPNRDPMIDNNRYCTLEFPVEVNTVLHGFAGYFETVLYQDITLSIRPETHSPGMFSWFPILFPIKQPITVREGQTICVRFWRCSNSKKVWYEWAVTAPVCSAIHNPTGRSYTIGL
T3 sequence (Q9BQA1 2-342 partner limits assumed): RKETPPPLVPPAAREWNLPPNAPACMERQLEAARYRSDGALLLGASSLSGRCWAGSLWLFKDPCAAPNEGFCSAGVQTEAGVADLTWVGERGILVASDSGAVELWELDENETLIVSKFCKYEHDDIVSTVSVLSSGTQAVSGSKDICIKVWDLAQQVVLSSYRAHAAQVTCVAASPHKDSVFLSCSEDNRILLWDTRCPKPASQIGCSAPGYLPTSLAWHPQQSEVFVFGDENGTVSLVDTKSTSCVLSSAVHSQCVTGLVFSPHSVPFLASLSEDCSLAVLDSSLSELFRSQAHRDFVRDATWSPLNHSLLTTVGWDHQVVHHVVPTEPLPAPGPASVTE
Method: as §1

[4] = target: T4, PRMT6 (Homo sapiens, UniProt Q96LA8); test: HotSpot radioisotope-based filter assay, PRMT6
T4 construct: PRMT6 (residues 2–375, C-terminus); with an N-terminal GST-tag; GST (N); purchased Reaction Biology Corporation
T4 sequence (Q96LA8 2-375): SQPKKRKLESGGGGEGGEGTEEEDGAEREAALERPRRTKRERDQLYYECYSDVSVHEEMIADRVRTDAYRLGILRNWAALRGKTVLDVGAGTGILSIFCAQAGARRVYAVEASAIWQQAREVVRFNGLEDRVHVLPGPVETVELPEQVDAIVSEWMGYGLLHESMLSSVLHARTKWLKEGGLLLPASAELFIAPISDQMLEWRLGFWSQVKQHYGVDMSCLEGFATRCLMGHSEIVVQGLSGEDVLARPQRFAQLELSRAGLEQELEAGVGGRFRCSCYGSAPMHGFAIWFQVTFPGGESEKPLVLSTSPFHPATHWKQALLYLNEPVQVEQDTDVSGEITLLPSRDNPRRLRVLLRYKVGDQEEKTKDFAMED
Method: as §1

[5] = target: T5, PRMT8 (Homo sapiens, UniProt Q9NR22); test: HotSpot radioisotope-based filter assay, PRMT8
T5 construct: (residues 61–394, C-terminus); with C- and N-terminal His-tags; His (N); His (C); purchased Reaction Biology Corporation
T5 sequence (Q9NR22 61-394): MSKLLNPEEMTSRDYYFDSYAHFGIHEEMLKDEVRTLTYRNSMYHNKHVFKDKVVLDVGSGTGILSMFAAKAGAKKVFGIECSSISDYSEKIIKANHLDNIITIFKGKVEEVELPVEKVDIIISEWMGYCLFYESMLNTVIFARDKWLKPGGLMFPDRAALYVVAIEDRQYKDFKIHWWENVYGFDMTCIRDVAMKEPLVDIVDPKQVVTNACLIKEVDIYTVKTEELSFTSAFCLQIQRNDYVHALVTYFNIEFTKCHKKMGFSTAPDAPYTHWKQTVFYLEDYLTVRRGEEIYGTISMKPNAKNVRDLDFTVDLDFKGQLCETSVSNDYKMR
Method: as §1

[6] = target: T6, ASH1L/KMT2H (Homo sapiens, UniProt Q9NR48); test: HotSpot KMT activity assay, ASH1L; settings: read-out: % ASH1L residual activity
T6 construct: the human recombinant ASH1L (residues 2046–2330, with an N-terminal His-tag); His (N); purchased Reaction Biology Corporation
From the text: (§2) ; MW = 35.4 kDa; Genbank Accession # NM_018489), or the human recombinant EZH2-containing five-member polycomb repressive complex 2 (including EZH2 residues 2–746, AEBP2 2–517, EED 2–441, RbAp48 2–425, SUZ12 2–739; all full-length; with N-terminal Flag-tag on EED and N-terminal His-tag on all others; MW = 333.8 kDa; Genbank Accession # NM_001203247, NM_001114176, NM_003797, NM_005610, NM_015355), or the human recombinant G9a (residues 913–1193, C-terminus; with an N-terminal His-tag; MW = 34.6 kDa; Genbank Accession # NM_006709.3), or the human recombinant MLL1 complex (including MLL1 residues 3745–3969, C-terminus, WDR5 22–334, C-terminus, RbBP5 1–538, C-terminus, ASH2L 2–534, C-terminus, DPY-30 1–99, C-terminus; N-terminal His-tag on all subunits; MW = 212.0 kDa; Genbank Accession # NM_005933, NM_017588, NM_005057, NM_001105214, NM_0325742), or the human recombinant SET7/9 (residues 2–366, C-terminus; with a N-terminal GST-tag and a C-terminal His-tag; MW = 68.5 kDa; Genbank Accession # NM_030648), or the human recombinant SMYD3 (residues 2–428, C-terminus; C-terminal His-tag; MW = 50.1 kDa; Genbank Accession # NM_001167740), or the human recombinant SUV39H2 (residues 46–410, C-terminus; N-terminal fusion protein with a C-terminal His-tag; MW = 98.8 kDa; GenBank Accession No. NM_001193424), or the human recombinant DOT1L (residues 1–416; N-terminal GST-tag; MW = 80.0 kDa; Genbank Accession # NM_032482) was added to a solution of the proper substrate (oligo nucleosomes for ASH1L, MLL1 complex, and DOT1L, final concentration 0.05 mg/mL; core histone for EZH2 complex and SET7/9, final concentration 0.05 mg/mL; histone H3 for SUV39H2, final concentration 5 μM; histone H3 1–21 for G9a, final concentration 2.5 μM) in freshly prepared reaction buffer (50 mM Tris-HCl (pH 8.5), 5 mM MgCl2, 50 mM NaCl, 1 mM DTT, 1 mM PMSF, 1% DMSO) and gently mixed. […] After incubation for 60 min at 30 °C, the reaction mixture was delivered to filter paper for detection (as assessed by scintillation). […] Values obtained for each compound are mean ± SD determined for two separate experiments.

[7] = target: T7, SUV39H2/KMT1B (Homo sapiens, UniProt Q9H5I1); test: HotSpot KMT activity assay, SUV39H2; settings: read-out: % SUV39H2 residual activity
T7 construct: the human recombinant SUV39H2 (residues 46–410, C-terminus); His (C); purchased Reaction Biology Corporation
T7 sequence (Q9H5I1 46-410): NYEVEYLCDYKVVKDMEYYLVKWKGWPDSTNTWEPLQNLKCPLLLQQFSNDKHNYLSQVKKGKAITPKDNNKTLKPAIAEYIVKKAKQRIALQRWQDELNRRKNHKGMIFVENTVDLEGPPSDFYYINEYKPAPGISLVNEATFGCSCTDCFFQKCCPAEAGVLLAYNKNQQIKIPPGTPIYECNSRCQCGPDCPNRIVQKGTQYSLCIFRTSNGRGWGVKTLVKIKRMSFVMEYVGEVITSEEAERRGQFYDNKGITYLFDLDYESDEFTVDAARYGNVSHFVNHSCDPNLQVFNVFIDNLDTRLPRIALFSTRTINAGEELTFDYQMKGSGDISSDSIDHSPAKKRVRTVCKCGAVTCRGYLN
From the text: as §2

[8] = Figure 2, from IC50 values of ref 31

T1 sequence (O60678 2-531): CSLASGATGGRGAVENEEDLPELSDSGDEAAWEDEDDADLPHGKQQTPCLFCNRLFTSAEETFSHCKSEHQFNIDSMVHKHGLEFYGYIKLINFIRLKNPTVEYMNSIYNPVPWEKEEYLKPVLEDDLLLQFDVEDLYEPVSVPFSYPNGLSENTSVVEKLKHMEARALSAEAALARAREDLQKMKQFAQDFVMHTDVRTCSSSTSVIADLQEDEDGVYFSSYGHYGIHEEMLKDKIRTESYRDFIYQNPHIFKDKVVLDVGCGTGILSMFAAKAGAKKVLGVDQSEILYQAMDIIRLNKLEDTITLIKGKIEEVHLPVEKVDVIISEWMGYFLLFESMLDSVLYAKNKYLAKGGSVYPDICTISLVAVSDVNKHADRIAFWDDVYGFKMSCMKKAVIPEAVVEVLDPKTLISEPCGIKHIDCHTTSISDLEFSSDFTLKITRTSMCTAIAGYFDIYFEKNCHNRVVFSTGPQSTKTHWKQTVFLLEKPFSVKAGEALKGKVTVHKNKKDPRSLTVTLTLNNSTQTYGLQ

Compound	selectivity index for PRMT7 over PRMT3 [1, 8]	selectivity index for PRMT7 over PRMT4 [2, 8]	selectivity index for PRMT7 over PRMT5 [3, 8]	selectivity index for PRMT7 over PRMT6 [4, 8]	selectivity index for PRMT7 over PRMT8 [5, 8]	IC50 ([1]; 5 μM histone H4, 3H-SAM 1 μM)	IC50 ([2]; 5 μM histone H3, 3H-SAM 1 μM)	IC50 ([3]; 5 μM histone H2A, 3H-SAM 1 μM)	IC50 ([4]; 5 μM GST-GAR, 3H-SAM 1 μM)	IC50 ([5]; 5 μM histone H4, 3H-SAM 1 μM)	remaining activity at 10 µM ([6]; 10 μM)	remaining activity at 100 µM ([6]; 100 μM)	remaining activity at 10 µM ([7]; 10 μM)	remaining activity at 100 µM ([7]; 100 μM)
COC(=O)c1cc(O)c2cc(NC(=O)NCCCCCNC(=N)NC[C@H]3O[C@@H](n4cnc5c(N)ncnc54)[C@H](O)[C@@H]3O)ccc2c1 [1c]	97 fold	2 fold	234 fold	455 fold	27 fold	–	–	–	–	–	–	–	–	–
COC(=O)c1cc(O)c2cc(NC(=O)NCCCNC(=N)NC[C@H]3O[C@@H](n4cnc5c(N)ncnc54)[C@H](O)[C@@H]3O)cc(C(F)(F)F)c2c1 [1j, Methyl 6-(3-(3-(3-(((2R,3S,4R,5R)-5-(6-Amino-9H-purin-9-yl)-3,4-dihydroxytetrahydrofuran-2-yl)methyl)guanidino)propyl)ureido)-4-hydroxy-8-(trifluoromethyl)-2-naphthoate]	–	–	–	–	–	14.9 µM	1.46 µM	1.01 µM	49.7 µM	1.97 µM	95.4 ± 1.49%	109 ± 3.8%	89.7 ± 1.08%	83.76 ± 0.22%
